From ChEMBL document CHEMBL4346703, “Structure Overhaul Affords a Potent Purine PI3Kδ Inhibitor with Improved Tolerability” (J Med Chem, 2019)
pIC50: −log10 of the molar value.

Columns and labels:
[1] = target: T1, Phosphatidylinositol 4,5-bisphosphate 3-kinase catalytic subunit delta isoform (Homo sapiens, UniProt O00329); test: Inhibition of PI3Kdelta in human Ramos cells assessed as reduction in anti-IgM-antibody-induced phosphorylation of AKT at Ser473 residue preincubated for 20 mins followed by anti-IgM antibody stimulation and measured after 30 mins by alphascreen assay; type: cell-based
T1 sequence (O00329 whole entry): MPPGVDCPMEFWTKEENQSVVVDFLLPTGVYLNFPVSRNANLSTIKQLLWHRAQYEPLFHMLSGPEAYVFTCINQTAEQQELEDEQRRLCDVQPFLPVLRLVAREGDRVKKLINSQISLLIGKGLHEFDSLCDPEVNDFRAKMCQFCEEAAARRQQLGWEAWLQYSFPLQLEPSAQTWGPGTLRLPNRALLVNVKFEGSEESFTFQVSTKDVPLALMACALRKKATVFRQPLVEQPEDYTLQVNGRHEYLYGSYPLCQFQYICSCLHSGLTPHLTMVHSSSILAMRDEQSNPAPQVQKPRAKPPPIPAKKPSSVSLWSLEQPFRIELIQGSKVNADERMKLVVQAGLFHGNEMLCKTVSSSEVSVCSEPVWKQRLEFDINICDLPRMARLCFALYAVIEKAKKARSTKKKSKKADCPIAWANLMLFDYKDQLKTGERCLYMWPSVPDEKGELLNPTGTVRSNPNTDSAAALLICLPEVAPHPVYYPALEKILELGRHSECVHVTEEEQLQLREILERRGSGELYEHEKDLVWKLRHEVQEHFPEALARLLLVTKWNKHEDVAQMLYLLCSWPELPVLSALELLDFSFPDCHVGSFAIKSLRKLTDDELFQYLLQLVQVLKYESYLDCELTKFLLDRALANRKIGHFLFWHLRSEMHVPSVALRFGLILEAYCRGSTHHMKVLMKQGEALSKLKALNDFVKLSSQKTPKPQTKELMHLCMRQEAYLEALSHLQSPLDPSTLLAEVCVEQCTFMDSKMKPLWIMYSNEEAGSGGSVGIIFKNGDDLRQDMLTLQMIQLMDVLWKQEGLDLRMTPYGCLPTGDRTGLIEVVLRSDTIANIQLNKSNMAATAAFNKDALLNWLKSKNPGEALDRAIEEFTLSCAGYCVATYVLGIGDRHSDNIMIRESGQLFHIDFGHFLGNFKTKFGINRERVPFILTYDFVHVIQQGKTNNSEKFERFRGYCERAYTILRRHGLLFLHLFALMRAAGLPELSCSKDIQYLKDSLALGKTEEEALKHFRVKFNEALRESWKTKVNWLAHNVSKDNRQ

Canis familiaris = test: Hemodynamic activity in Beagle dog at 25 mg/kg administered for 8 days; type: ADME, organism-based, Canis lupus familiaris; conditions: in vivo, 192 h
Homo sapiens [2] = organism: Homo sapiens; test: (§1) Selectivity ratio of IC50 for N-terminal His6-tagged recombinant full length human PI3Kgamma expressed in baculovirus infected Sf21 cells to IC50 for N-terminal His6-tagged recombinant full length human p110delta/untagged recombinant full length human p85alpha expressed in baculovirus infected Sf21 insect cells
[3] = fAUC in rat at 750 mg/kg administered for 4 days; type: ADME, organism-based; conditions: in vivo, 96 h
[4] = Unbound volume of distribution in Beagle dog; type: ADME, Canis lupus familiaris; conditions: in vivo
[5] = Protein binding in Wistar Han rat plasma; type: ADME, cell-free; conditions: read-out: PPB (converted)
[6] = Volume of distribution in Wistar Han rat; type: ADME; conditions: in vivo
[7] = Oral bioavailability in Beagle dog; type: ADME, organism-based, Canis lupus familiaris; conditions: in vivo
Rattus norvegicus = test: Hemodynamic activity in telemetered rat assessed as effect on heart rate at 60 mg/kg; type: ADME, organism-based; conditions: in vivo
[8] = Unbound volume of distribution in Wistar Han rat; type: ADME; conditions: in vivo
[9] = Toxicity in Beagle dog assessed as decrease in basophil count at 25 mg/kg administered for 8 days; type: organism-based, Canis lupus familiaris; conditions: in vivo, 192 h
Phosphodiesterase 7 = Phosphodiesterase 7 (Homo sapiens, UniProt Q13946+Q9NP56); test: Inhibition of PDE7 (unknown origin); type: protein assay
[10] = Intrinsic clearance in rat microsomes; type: ADME, Microsome
[11] = Drug recovery in rat urine after 24 hrs; type: ADME; conditions: read-out: Drug recovery
[12] = Half-life in Wistar Han rat; type: ADME; conditions: in vivo
[13] = Solubility of the compound; type: physicochemical
[14] = target: cGMP-dependent 3',5'-cyclic phosphodiesterase (Homo sapiens, UniProt O00408); test: Inhibition of PDE2 (unknown origin)
[15] = fCmax in Beagle dog at 25 mg/kg administered for 8 days; type: ADME, organism-based, Canis lupus familiaris; conditions: in vivo, 192 h
[16] = Plasma clearance in Wistar Han rat at 0.5 mg/kg, iv or 1 mg/kg, po; type: ADME, organism-based
[17] = Oral bioavailability in Wistar Han rat; type: ADME, organism-based; conditions: in vivo
[18] = Drug recovery in rat bile after 24 hrs; type: ADME; conditions: read-out: Drug recovery
[19] = Lipophilicity, log D of the compound; type: physicochemical; conditions: octanol/water
[20] = Intrinsic clearance in Wistar Han rat at 0.5 mg/kg, iv or 1 mg/kg, po; type: ADME, organism-based; conditions: in vivo
[21] = target: cGMP-specific 3',5'-cyclic phosphodiesterase (Homo sapiens, UniProt O76074); test: Inhibition of PDE5 (unknown origin)
Phosphodiesterase 6 = test: Inhibition of PDE6 (unknown origin); type: protein assay, Homo sapiens
[22] = Cardiovascular toxicity in rat assessed as vascular injury at 750 mg/kg for 4 days; type: organism-based; conditions: in vivo, 96 h
[23] = Protein binding in human plasma; type: ADME, cell-free; conditions: read-out: PPB (converted)
[24] = target: Dual 3',5'-cyclic-AMP and -GMP phosphodiesterase 11A (Homo sapiens, UniProt Q9HCR9); test: Inhibition of PDE11 (unknown origin)
[25] = Intrinsic clearance in rat hepatocytes; type: ADME, cell-based, Hepatocyte; conditions: read-out: CLH
[26] = target: T1, Phosphatidylinositol 4,5-bisphosphate 3-kinase catalytic subunit delta isoform; test: Inhibition of PI3Kdelta in human whole blood assessed as reduction in antihuman IgE antibody-stimulated CD63 expression preincubated for 30 mins followed by antihuman IgE antibody stimulation and measured after 20 mins by FACS analysis; type: tissue-based
[27] = fCmax in rat at 750 mg/kg administered for 4 days; type: ADME, organism-based; conditions: in vivo, 96 h
[28] = Toxicity in Beagle dogs assessed as vascular injury at 25 mg/kg administered for 8 days; type: organism-based, Canis lupus familiaris; conditions: dog, in vivo, 192 h
[29] = target: High affinity cGMP-specific 3',5'-cyclic phosphodiesterase 9A (Homo sapiens, UniProt O76083); test: Inhibition of PDE9 (unknown origin)
[30] = Protein binding in Beagle dog plasma; type: ADME, cell-free, Canis lupus familiaris; conditions: read-out: PPB (converted)
Homo sapiens [31] = organism: Homo sapiens; test: as §1, with “length human p110alpha/untagged recombinant full length human p85alpha expressed in” for “length human PI3Kgamma expressed in”, “infected Sf21 insect cells to” for “infected Sf21 cells to”
[32] = Inhibition of adenosine transporter in human HeLa cells assessed as reduction in [3H]adenosine uptake preincubated for 30 mins followed by [3H]adenosine addition and measured after 60 mins; type: ADME, cell-based
[33] = fAUC in Beagle dog at 25 mg/kg administered for 8 days; type: ADME, organism-based, Canis lupus familiaris; conditions: in vivo, 192 h
[34] = Plasma clearance in Beagle dog at 0.25 mg/kg, iv or 0.5 mg/kg, po; type: ADME, organism-based, Canis lupus familiaris
[35] = Toxicity in Beagle dogs assessed as body weight loss at 25 mg/kg administered for 8 days; type: organism-based, Canis lupus familiaris; conditions: dog, in vivo, 192 h

Sequence of High affinity cGMP-specific 3',5'-cyclic phosphodiesterase 9A (O76083 whole entry): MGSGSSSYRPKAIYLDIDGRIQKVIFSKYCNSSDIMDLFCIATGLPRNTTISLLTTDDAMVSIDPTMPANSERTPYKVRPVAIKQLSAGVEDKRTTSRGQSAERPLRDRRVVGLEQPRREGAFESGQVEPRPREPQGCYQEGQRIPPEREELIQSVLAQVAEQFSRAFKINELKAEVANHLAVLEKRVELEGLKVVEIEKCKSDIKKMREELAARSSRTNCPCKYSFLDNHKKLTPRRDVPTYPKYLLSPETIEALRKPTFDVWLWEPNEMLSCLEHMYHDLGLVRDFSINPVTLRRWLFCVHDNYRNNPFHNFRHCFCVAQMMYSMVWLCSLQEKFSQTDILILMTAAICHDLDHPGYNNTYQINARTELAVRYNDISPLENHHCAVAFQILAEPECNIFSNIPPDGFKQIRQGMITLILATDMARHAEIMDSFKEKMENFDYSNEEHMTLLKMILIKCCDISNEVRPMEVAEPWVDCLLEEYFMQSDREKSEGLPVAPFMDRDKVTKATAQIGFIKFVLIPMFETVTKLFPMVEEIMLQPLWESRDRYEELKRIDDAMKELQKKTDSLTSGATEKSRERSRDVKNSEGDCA
Sequence of Dual 3',5'-cyclic-AMP and -GMP phosphodiesterase 11A (Q9HCR9 whole entry): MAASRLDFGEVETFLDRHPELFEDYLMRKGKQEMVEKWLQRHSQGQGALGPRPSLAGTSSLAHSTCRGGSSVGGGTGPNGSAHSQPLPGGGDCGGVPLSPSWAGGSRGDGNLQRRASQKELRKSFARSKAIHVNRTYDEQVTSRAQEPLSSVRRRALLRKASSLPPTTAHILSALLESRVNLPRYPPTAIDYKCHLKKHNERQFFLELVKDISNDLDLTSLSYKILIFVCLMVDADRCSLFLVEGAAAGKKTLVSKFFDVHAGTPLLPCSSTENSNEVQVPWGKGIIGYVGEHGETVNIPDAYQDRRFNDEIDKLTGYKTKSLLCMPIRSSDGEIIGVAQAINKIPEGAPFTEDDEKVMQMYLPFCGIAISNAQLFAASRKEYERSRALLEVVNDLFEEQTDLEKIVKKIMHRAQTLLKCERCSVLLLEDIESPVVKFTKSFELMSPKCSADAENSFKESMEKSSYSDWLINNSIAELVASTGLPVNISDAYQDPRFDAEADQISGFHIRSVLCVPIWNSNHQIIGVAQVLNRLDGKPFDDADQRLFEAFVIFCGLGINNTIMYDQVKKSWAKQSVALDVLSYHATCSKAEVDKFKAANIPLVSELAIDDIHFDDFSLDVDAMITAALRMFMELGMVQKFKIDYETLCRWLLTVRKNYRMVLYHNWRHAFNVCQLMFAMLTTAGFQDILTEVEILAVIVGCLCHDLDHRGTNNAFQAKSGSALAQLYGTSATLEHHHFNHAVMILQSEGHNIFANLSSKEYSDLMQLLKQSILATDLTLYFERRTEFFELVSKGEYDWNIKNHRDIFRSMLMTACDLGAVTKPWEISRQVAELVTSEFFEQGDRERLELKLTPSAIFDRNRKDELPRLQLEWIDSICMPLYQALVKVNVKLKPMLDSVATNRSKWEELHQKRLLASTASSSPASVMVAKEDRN
Sequence of cGMP-dependent 3',5'-cyclic phosphodiesterase (O00408 whole entry): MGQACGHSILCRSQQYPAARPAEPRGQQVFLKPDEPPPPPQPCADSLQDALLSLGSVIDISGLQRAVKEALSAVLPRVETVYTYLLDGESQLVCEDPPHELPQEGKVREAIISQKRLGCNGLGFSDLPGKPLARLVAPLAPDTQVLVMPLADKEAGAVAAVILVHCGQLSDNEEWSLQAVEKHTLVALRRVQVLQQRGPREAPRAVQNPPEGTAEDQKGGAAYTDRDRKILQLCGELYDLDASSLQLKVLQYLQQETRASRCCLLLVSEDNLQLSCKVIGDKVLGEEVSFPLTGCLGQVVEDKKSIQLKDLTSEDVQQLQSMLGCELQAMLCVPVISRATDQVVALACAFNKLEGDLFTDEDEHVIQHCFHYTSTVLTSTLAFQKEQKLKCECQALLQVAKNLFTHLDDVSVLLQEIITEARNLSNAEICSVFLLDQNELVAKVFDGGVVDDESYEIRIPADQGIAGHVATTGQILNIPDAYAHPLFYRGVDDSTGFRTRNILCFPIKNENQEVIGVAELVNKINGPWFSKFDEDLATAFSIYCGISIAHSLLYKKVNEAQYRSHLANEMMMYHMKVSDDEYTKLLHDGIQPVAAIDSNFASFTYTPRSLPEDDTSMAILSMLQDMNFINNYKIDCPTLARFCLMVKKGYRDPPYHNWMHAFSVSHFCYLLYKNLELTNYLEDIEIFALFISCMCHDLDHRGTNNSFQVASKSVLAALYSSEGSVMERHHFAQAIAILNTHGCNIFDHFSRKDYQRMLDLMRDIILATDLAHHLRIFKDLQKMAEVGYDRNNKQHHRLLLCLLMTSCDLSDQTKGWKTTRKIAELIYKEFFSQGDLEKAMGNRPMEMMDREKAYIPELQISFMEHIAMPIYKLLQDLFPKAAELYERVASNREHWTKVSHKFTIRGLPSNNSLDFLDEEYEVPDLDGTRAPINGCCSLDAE

- pIC50 [1]: 7.21
- fAUC [3]: 990 µM·h
- Vdu [4]: 3 L/kg
- fraction unbound [5]: 0.73
- Vd [6]: 1.2 L/kg
- bioavailability [7]: 100%
- Vdu [8]: 2 L/kg
- IC50 (Phosphodiesterase 7): > 50 µM
- CLint scaled [10]: < 110 mL/min/kg
- dose excreted at 24 h [11]: 17%
- half-life [12]: 48 min
- solubility [13]: > 10000 µg/mL
- pIC50 [14]: < 4.30
- fCmax [15]: 46 µM
- clearance [16]: 41 mL/min/kg
- bioavailability [17]: 55%
- dose excreted at 24 h [18]: 2%
- logD [19]: 1.1
- CL [20]: 126 mL/min/kg
- pIC50 [21]: < 4.30
- IC50 (Phosphodiesterase 6): > 50 µM
- fraction unbound [23]: 0.83
- pIC50 [24]: < 4.70
- CLint scaled [25]: < 40 mL/min/kg
- pIC50 [26]: 6.38
- fCmax [27]: 200 µM
- pIC50 [29]: < 4.30
- fraction unbound [30]: 0.74
- pIC50 [32]: < 5.00
- fAUC [33]: 222 µM·h
- clearance [34]: 5.8 mL/min/kg
Structure (SMILES): CCn1ncc(-c2nc3c(O[C@H]4CCN(C(=O)C5CCOCC5)C4)ncnc3n2C)c1C
- Activity (Canis familiaris): Non-Toxic
- Ratio IC50 (Homo sapiens [2]): 970
- Activity (Rattus norvegicus): Non-Toxic
- Activity [9]: Non-Toxic
- Activity [22]: Non-Toxic
- Activity [28]: Non-Toxic
- Ratio IC50 (Homo sapiens [31]): 69
- Activity [35]: Non-Toxic
